PubChem BioAssay (NCI)
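A five-concentration, 48-hour dose response in 96-well plates underlies each endpoint, interpolated linearly between surrounding concentrations. Abbreviation: GI50, concentration required for 50% inhibition of growth. At the TGI there is no net growth.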

Key:
Test in all cases: DTP human tumour cell line panel, 48 h
EKVX NSCLC = system: EKVX NSCLC
SF-268 CNS = system: SF-268 CNS
M14 melanoma = system: M14 melanoma
SK-MEL-28 melanoma = system: SK-MEL-28 melanoma
RXF 393 renal = system: RXF 393 renal
786-0 renal = system: 786-0 renal
T-47D breast = system: T-47D breast
LOX IMVI melanoma = system: LOX IMVI melanoma
IGROV1 ovarian = system: IGROV1 ovarian
UACC-62 melanoma = system: UACC-62 melanoma
A549 NSCLC = system: A549 NSCLC
HOP-62 NSCLC = system: HOP-62 NSCLC
ACHN renal = system: ACHN renal
HCT-116 colon = system: HCT-116 colon
SW-620 colon = system: SW-620 colon
COLO 205 colon = system: COLO 205 colon
CCRF-CEM leukemia = system: CCRF-CEM leukemia
SNB-19 CNS = system: SNB-19 CNS
HS 578T breast = system: HS 578T breast
HCC-2998 colon = system: HCC-2998 colon
UACC-257 melanoma = system: UACC-257 melanoma
TK-10 renal = system: TK-10 renal
U251 CNS = system: U251 CNS
NCI/ADR-RES ovarian = system: NCI/ADR-RES ovarian
SN12C renal = system: SN12C renal
SK-MEL-5 melanoma = system: SK-MEL-5 melanoma
MDA-MB-231 breast = system: MDA-MB-231 breast
OVCAR-5 ovarian = system: OVCAR-5 ovarian
HCT-15 colon = system: HCT-15 colon
RPMI-8226 leukemia = system: RPMI-8226 leukemia
SK-MEL-2 melanoma = system: SK-MEL-2 melanoma
K-562 leukemia = system: K-562 leukemia
KM12 colon = system: KM12 colon
NCI-H23 lung = system: NCI-H23 lung
MALME-3M melanoma = system: MALME-3M melanoma
OVCAR-3 ovarian = system: OVCAR-3 ovarian
NCI-H460 lung = system: NCI-H460 lung
OVCAR-4 ovarian = system: OVCAR-4 ovarian
A498 renal = system: A498 renal
DU-145 prostate = system: DU-145 prostate
HOP-92 NSCLC = system: HOP-92 NSCLC
SF-539 CNS = system: SF-539 CNS
SK-OV-3 ovarian = system: SK-OV-3 ovarian
MCF7 breast = system: MCF7 breast
MDA-MB-435 = system: MDA-MB-435
BT-549 breast = system: BT-549 breast
OVCAR-8 ovarian = system: OVCAR-8 ovarian
HL-60(TB) leukemia = system: HL-60(TB) leukemia
CAKI-1 renal = system: CAKI-1 renal
SNB-75 CNS = system: SNB-75 CNS
HT29 colon = system: HT29 colon
MOLT-4 leukemia = system: MOLT-4 leukemia
UO-31 renal = system: UO-31 renal
NCI-H226 lung = system: NCI-H226 lung
NCI-H522 lung = system: NCI-H522 lung
SR leukemia = system: SR leukemia
SF-295 CNS = system: SF-295 CNS
PC-3 prostate = system: PC-3 prostate

## CCC(=O)Nc1ccccc1C#C/C=C\C#Cc1ccccc1SC
EKVX NSCLC
  GI50: 7110 nM
  TGI: 78500 nM
SF-268 CNS
  GI50: 12300 nM
  TGI: > 100000 nM
M14 melanoma
  GI50: 12000 nM
  TGI: > 100000 nM
SK-MEL-28 melanoma
  GI50: 8750 nM
  TGI: > 100000 nM
RXF 393 renal
  TGI: 1840 nM
786-0 renal
  GI50: 33600 nM
  TGI: > 100000 nM
T-47D breast
  GI50: 8960 nM
  TGI: > 100000 nM
LOX IMVI melanoma
  GI50: 5470 nM
  TGI: > 100000 nM
IGROV1 ovarian
  GI50: 738 nM
  TGI: 37300 nM
UACC-62 melanoma
  GI50: 4040 nM
  TGI: > 100000 nM
A549 NSCLC
  GI50: 3350 nM
  TGI: > 100000 nM
HOP-62 NSCLC
  GI50: 10000 nM
  TGI: > 100000 nM
ACHN renal
  GI50: 30100 nM
  TGI: > 100000 nM
HCT-116 colon
  GI50: 5610 nM
  TGI: > 100000 nM
SW-620 colon
  GI50: 4620 nM
  TGI: > 100000 nM
COLO 205 colon
  GI50: 9840 nM
  TGI: > 100000 nM
CCRF-CEM leukemia
  GI50: 2750 nM
  TGI: 23700 nM
SNB-19 CNS
  GI50: 43800 nM
  TGI: > 100000 nM
HS 578T breast
  GI50: 17100 nM
  TGI: > 100000 nM
HCC-2998 colon
  GI50: 5090 nM
  TGI: 27300 nM
UACC-257 melanoma
  GI50: 12100 nM
  TGI: 59200 nM
TK-10 renal
  GI50: 50400 nM
  TGI: > 100000 nM
U251 CNS
  GI50: 6430 nM
  TGI: > 100000 nM
NCI/ADR-RES ovarian
  GI50: 5150 nM
  TGI: 65200 nM
SN12C renal
  GI50: 26700 nM
  TGI: > 100000 nM
SK-MEL-5 melanoma
  GI50: 3910 nM
  TGI: 17400 nM
MDA-MB-231 breast
  GI50: 7920 nM
  TGI: > 100000 nM
OVCAR-5 ovarian
  GI50: 33300 nM
  TGI: > 100000 nM
HCT-15 colon
  GI50: 4270 nM
  TGI: > 100000 nM
RPMI-8226 leukemia
  GI50: 1260 nM
  TGI: 11700 nM
SK-MEL-2 melanoma
  GI50: 74.2 nM
  TGI: 3830 nM
K-562 leukemia
  GI50: 6370 nM
  TGI: > 100000 nM
KM12 colon
  GI50: 5270 nM
  TGI: > 100000 nM
NCI-H23 lung
  GI50: 22700 nM
  TGI: > 100000 nM
MALME-3M melanoma
  GI50: 35100 nM
  TGI: > 100000 nM
OVCAR-3 ovarian
  GI50: 8870 nM
  TGI: 80600 nM
NCI-H460 lung
  GI50: 3400 nM
  TGI: > 100000 nM
OVCAR-4 ovarian
  GI50: 30100 nM
  TGI: > 100000 nM
A498 renal
  GI50: 15100 nM
  TGI: > 100000 nM
DU-145 prostate
  GI50: 40500 nM
  TGI: > 100000 nM
HOP-92 NSCLC
  GI50: 3960 nM
  TGI: 78700 nM
SF-539 CNS
  GI50: 14200 nM
  TGI: > 100000 nM
SK-OV-3 ovarian
  GI50: 53700 nM
  TGI: > 100000 nM
MCF7 breast
  GI50: 3390 nM
  TGI: 29700 nM
MDA-MB-435
  GI50: 1920 nM
  TGI: 6170 nM
BT-549 breast
  GI50: 14700 nM
  TGI: > 100000 nM
OVCAR-8 ovarian
  GI50: 12300 nM
  TGI: > 100000 nM
HL-60(TB) leukemia
  GI50: 1460 nM
  TGI: > 100000 nM
CAKI-1 renal
  GI50: 5180 nM
  TGI: > 100000 nM
SNB-75 CNS
  GI50: 4760 nM
  TGI: > 100000 nM
HT29 colon
  GI50: 5200 nM
  TGI: > 100000 nM
MOLT-4 leukemia
  GI50: 4460 nM
  TGI: > 100000 nM
UO-31 renal
  GI50: 838 nM
  TGI: 28600 nM
NCI-H226 lung
  GI50: 16900 nM
  TGI: > 100000 nM
NCI-H522 lung
  GI50: 8890 nM
  TGI: > 100000 nM
SR leukemia
  GI50: 1680 nM
  TGI: > 100000 nM

## NC1CCC(Nc2nc(NCc3ccc(-c4ccccc4O)nc3)c3ncn(C4CCCC4)c3n2)CC1 (centres undefined)
EKVX NSCLC
  GI50: 29.1 nM
  TGI: 474 nM
SF-295 CNS
  GI50: 29.5 nM
  TGI: 219 nM
SF-268 CNS
  GI50: < 10 nM
  TGI: 344 nM
M14 melanoma
  GI50: 11.2 nM
  TGI: 55.2 nM
SK-MEL-28 melanoma
  GI50: 21.1 nM
  TGI: 71.3 nM
RXF 393 renal
  GI50: 14.4 nM
  TGI: 35.6 nM
786-0 renal
  GI50: 29.3 nM
  TGI: 1060 nM
T-47D breast
  GI50: 25.2 nM
  TGI: 79.1 nM
IGROV1 ovarian
  GI50: 34.5 nM
  TGI: 2040 nM
UACC-62 melanoma
  GI50: < 17.4 nM
  TGI: 59.3 nM
A549 NSCLC
  GI50: < 10 nM
  TGI: 1180 nM
HOP-62 NSCLC
  GI50: 15.7 nM
  TGI: 66.6 nM
ACHN renal
  GI50: 140 nM
  TGI: 1070 nM
HCT-116 colon
  GI50: 31.7 nM
  TGI: 1150 nM
SW-620 colon
  GI50: < 10 nM
  TGI: 1230 nM
COLO 205 colon
  GI50: 12 nM
  TGI: 27.8 nM
CCRF-CEM leukemia
  GI50: < 10 nM
  TGI: 1220 nM
SNB-19 CNS
  GI50: < 14.7 nM
  TGI: 1320 nM
HS 578T breast
  GI50: < 11 nM
  TGI: 1340 nM
HCC-2998 colon
  GI50: 22.9 nM
  TGI: 515 nM
UACC-257 melanoma
  GI50: 22.7 nM
  TGI: 72.9 nM
TK-10 renal
  GI50: 30.6 nM
  TGI: 1330 nM
U251 CNS
  GI50: 29.4 nM
  TGI: 321 nM
NCI/ADR-RES ovarian
  GI50: 135 nM
  TGI: 2180 nM
SN12C renal
  GI50: 14.9 nM
  TGI: 1380 nM
SK-MEL-5 melanoma
  GI50: 31.3 nM
  TGI: 1170 nM
MDA-MB-231 breast
  GI50: < 10.5 nM
  TGI: 895 nM
OVCAR-5 ovarian
  GI50: 32.2 nM
  TGI: 1380 nM
HCT-15 colon
  GI50: 210 nM
  TGI: 1140 nM
RPMI-8226 leukemia
  GI50: < 10 nM
  TGI: 47.9 nM
SK-MEL-2 melanoma
  GI50: 22.7 nM
  TGI: 58.3 nM
PC-3 prostate
  GI50: 27.5 nM
  TGI: 1020 nM
KM12 colon
  GI50: 18 nM
  TGI: 429 nM
NCI-H23 lung
  GI50: 21.4 nM
  TGI: 66.4 nM
OVCAR-3 ovarian
  GI50: 28.8 nM
  TGI: 89.9 nM
NCI-H460 lung
  GI50: 33.7 nM
  TGI: 1170 nM
A498 renal
  GI50: 23.3 nM
  TGI: 65.6 nM
DU-145 prostate
  GI50: 34.4 nM
  TGI: 1160 nM
HOP-92 NSCLC
  GI50: 20 nM
  TGI: 77 nM
SF-539 CNS
  GI50: 62.5 nM
  TGI: 267 nM
SK-OV-3 ovarian
  GI50: 36 nM
  TGI: 431 nM
MDA-MB-435
  GI50: 11.9 nM
  TGI: 1170 nM
BT-549 breast
  GI50: 99.8 nM
  TGI: 623 nM
HL-60(TB) leukemia
  GI50: < 10 nM
CAKI-1 renal
  GI50: 380 nM
  TGI: 2200 nM
SNB-75 CNS
  GI50: 12.1 nM
  TGI: 35.6 nM
HT29 colon
  GI50: < 10 nM
  TGI: 210 nM
MOLT-4 leukemia
  GI50: < 10 nM
  TGI: 213 nM
UO-31 renal
  GI50: 75.9 nM
  TGI: 545 nM
NCI-H226 lung
  GI50: 48.6 nM
  TGI: 404 nM
NCI-H522 lung
  GI50: < 10 nM
  TGI: 10 nM
SR leukemia
  GI50: 35.4 nM
  TGI: 1350 nM
